Assay results: publication PMC12040169 (PLOS Biology, 2025)

Experiment: in vitro
Conditions: human, hela cells, % viability

Row | SMILES | viability at 28.5 h, 10 µM [%]
1 | CS(=O)(=O)N1CCN(CC(O)Cn2c3ccc(Cl)cc3c3cc(Cl)ccc32)CC1 (centres unmarked) [CBK264381] | 94
2 | CN(C)S(=O)(=O)Nc1ccccc1C(N)=O [CBK264382] | 111
3 | Cc1ccc(C(=O)/C=C\Nc2ccc(S(=O)(=O)Nc3cc(C)nc(C)n3)cc2)cc1 [CBK264384] | 124
4 | CCc1ccc(O)c(NC(=S)NC(=O)c2cccc3c(Br)cccc23)c1 [CBK264385] | 111
5 | COc1ccc(C(=O)/C=C(\Nc2cccc(C(F)(F)F)c2)C(=O)O)cc1 [CBK264387] | 107
6 | O=C(CSc1nnc(-c2ccco2)[nH]1)c1ccc(O)cc1O [CBK264392] | 108
7 | COC(=O)C1CCN(S(=O)(=O)c2ccccc2[N+](=O)[O-])CC1 [CBK264393] | 115
8 | NS(=O)(=O)c1ccc(CCNC(=O)c2ccc(Cl)c([N+](=O)[O-])c2)cc1 [CBK264395] | 94.8
9 | CCOC(=O)c1ccc(NC(=O)C2CC(=O)NC(Nc3nc4ccccc4s3)=N2)cc1 (centres unmarked) [CBK264396] | 100
10 | CC(CC(=O)O)CC(=O)NNc1ncc(Cl)cc1Cl (centres unmarked) [CBK264398] | 102
11 | CC(C)(C)c1ccc(O)c(NC(=S)NC(=O)c2ccccc2I)c1 [CBK264399] | 114
12 | O=c1/c(=C/c2cccnc2)sc2n1CN(c1cccc([N+](=O)[O-])c1)CN=2 [CBK264401] | 76.9
13 | Cc1ccc(/C=C/C(=O)O)cc1S(=O)(=O)NCCO [CBK264404] | 93.2
14 | O=[N+]([O-])c1ccccc1/C=C\C=N\n1c(S)nnc1-c1ccc(Cl)cc1Cl [CBK264405] | 95
15 | Cc1ccc(/C=C/C(=O)O)cc1S(=O)(=O)NC1CCS(=O)(=O)C1 (centres unmarked) [CBK264409] | 96.1
16 | COc1cccc(C(=O)Nc2ccc(O)c(C)c2)c1 [CBK264413] | 88.1
17 | O=S(=O)(NCCc1nc2ccccc2[nH]1)c1ccc(Cl)c(Cl)c1 [CBK264416] | 93.5
18 | O=[N+]([O-])c1ccc(N2CCN(S(=O)(=O)c3ccc4ccccc4c3)CC2)cc1NCc1ccco1 [CBK264417] | 108
19 | O=C(O)COc1ccccc1/C=N/n1c(S)nnc1-c1ccc(Cl)cc1Cl [CBK264418] | 89.5
20 | COc1ccc(-c2nnc(S)n2/N=C\c2ccc(C(=O)O)cc2)cc1 [CBK264419] | 92.4
21 | Cc1ccc(/C=C/C(=O)O)cc1S(=O)(=O)N1CCCc2ccccc21 [CBK264425] | 101

Row | SMILES | viability at 28.5 h, 10 µM [%]
22 | O=C(O)CSc1nnc(-c2ccncc2)n1-c1ccccc1 [CBK264426] | 109
23 | Nc1nc(SCCCN2C(=O)c3cccc4cccc(c34)C2=O)nc2sc3c(c12)CCCC3 [CBK264433] | 99.1
24 | N#CCCN(Cc1ccccc1)C(=O)c1ccccc1[N+](=O)[O-] [CBK264434] | 92.6
25 | CCc1ccc(OCC(=O)c2ccc(O)c(CN(C)C)c2O)cc1 [CBK264438C] | 116
26 | CC(=O)Nc1ccc(S(=O)(=O)N2CCN(c3ccc([N+](=O)[O-])c(NC4CC4)c3)CC2)cc1 [CBK264439] | 97.3
27 | Oc1ccc(-c2n[nH]c(C(F)(F)F)c2Oc2ccc(F)cc2)c(O)c1 [CBK264440] | 89.5
28 | COc1cccc(/C=C2/SC(=S)NC2=O)c1OCCCOc1ccc(C)cc1C [CBK264441] | 94.8
29 | NC(=O)c1cc([N+](=O)[O-])ccc1NCCN1C(=O)c2ccc(C(=O)O)cc2C1=O [CBK264444] | 105
30 | Oc1cccc2ccc(/C=C/c3ccc(-c4ccccc4Cl)o3)nc12 [CBK264445] | 97.7
31 | COc1cccc(/C=C2/SC(=S)N(C)C2=O)c1OCCCOc1ccc(C)cc1C [CBK264446] | 102
32 | C(=C\C1Nc2ccccc2-c2nnc(SCc3ccccc3)nc2O1)/c1ccccc1 (centres unmarked) [CBK264447] | 112
33 | COCC(=O)Nc1cc(OC)c(Cl)cc1OC [CBK264448] | 103
34 | O=C(O)/C=C\C(=O)Nc1ccc(OCC(=O)O)cc1 [CBK264449] | 102
35 | O=[N+]([O-])c1cccc(-c2noc(COc3ccc(Br)cc3Cl)n2)c1 [CBK264452] | 101
36 | N/C(=N\OC(=O)CCCc1ccccc1)c1ccc(Cl)cc1 [CBK264454] | 107
37 | O=C(NCc1cccnc1)c1cc(S(=O)(=O)N2CCCC2)c(Cl)cc1Cl [CBK264455] | 108
38 | CN(C)CCCN1C(=O)C(O)=C(C(=O)c2ccc(F)cc2)C1c1ccco1 (centres unmarked) [CBK264456] | 94.6
39 | CCCc1cc(=O)oc2cc(OCC(=O)OC(C)C)c(Cl)cc12 [CBK264459] | 96.9
40 | O=S(=O)(c1ccccc1)N(CC(O)CN1CCCC1)c1cccc2ccccc12 (centres unmarked) [CBK264464C] | 93.9
41 | O=C(O)CC1S/C(=N/N=C/c2cn(Cc3ccccc3)c3ccccc23)NC1=O (centres unmarked) [CBK264466] | 102
42 | C(=C\c1ccccc1)/CSc1nnc(CSc2nc3ccccc3s2)n1-c1ccccc1 [CBK264467] | 101

Row | SMILES | viability at 28.5 h, 10 µM [%]
43 | O=C(NCCCN1CCOCC1)c1ccc(/C=N/O)nc1 [CBK264468] | 107
44 | O=C(CC1S/C(=N/N=C/c2ccc(-c3ccc(Cl)c([N+](=O)[O-])c3)o2)NC1=O)Nc1ccccc1 (centres unmarked) [CBK264473] | 92.9
45 | CCOC(=O)c1ccc(-c2ccc(/C=N/N=C3\NC(=O)C(CC(=O)O)S3)o2)cc1 (centres unmarked) [CBK264474] | 108
46 | Cc1ccc(C(=O)C2=C(O)C(=O)N(CCCn3ccnc3)C2c2ccncc2)cc1 (centres unmarked) [CBK264476] | 106
47 | Cc1[nH]nc(-c2ccc(O)c(C)c2O)c1Oc1ccc(F)cc1 [CBK264478] | 124
48 | N#C/C(=C/c1ccc(-c2ccc(S(N)(=O)=O)cc2)o1)c1nc2ccccc2s1 [CBK264480] | 83.8
49 | Cc1sc2nc(SCCCC(=O)NCCO)nc(N)c2c1C [CBK264482] | 96.2
50 | O=C(C1=C(O)C(=O)N(CCCn2ccnc2)C1c1ccccc1)c1cccs1 (centres unmarked) [CBK264484] | 110
51 | Cc1cc(C)nc(SCCCn2c(=O)[nH]c3ccccc32)n1 [CBK264485] | 112
52 | CN(C)CCN1C(=O)C(O)=C(C(=O)c2ccco2)C1c1ccc([N+](=O)[O-])cc1 (centres unmarked) [CBK264486] | 109
53 | O=c1c(Oc2ccc3ccccc3c2)c(C(F)(F)F)oc2c(CN3CCOCC3)c(O)ccc12 [CBK264487] | 103
54 | NS(=O)(=O)c1ccc(NC(=O)c2cccnc2)cc1 [CBK264488] | 106
55 | O=C(C1=C(O)C(=O)N(CCN2CCOCC2)C1c1cccc(Br)c1)c1ccco1 (centres unmarked) [CBK264490] | 94.4
56 | COc1ccc(OC)c(C2C(C(=O)c3ccc(C)cc3)=C(O)C(=O)N2Cc2cccnc2)c1 (centres unmarked) [CBK264492] | 113
57 | Cc1ccc2ccccc2c1Cn1cc(-c2ccc([N+](=O)[O-])cc2)nc1SCC(=O)NC(C)(C)C [CBK264493] | 115
58 | c1ccc(-c2csc3ncnc(-n4cnc5ccccc54)c23)cc1 [CBK264494] | 109
59 | CC(=O)N/C(=C/c1ccc([N+](=O)[O-])cc1)C(=O)Nc1cccc(C(=O)O)c1 [CBK264495] | 94.8
60 | Cc1oc2c(CN(C)C)c(O)ccc2c(=O)c1-c1cnn(-c2ccccc2)c1 [CBK264496] | 101
61 | Cc1cc(C(=O)O)cc(S(=O)(=O)N2CCOCC2)c1C [CBK264497] | 89.5
62 | O=C(O)/C=C/C(=O)Nc1ccc(S(=O)(=O)NCc2ccco2)cc1 [CBK264500] | 106
63 | COc1cc(/C=C2\SC(=N)NC2=O)cc(Cl)c1OS(=O)(=O)c1ccc(NC(C)=O)cc1 [CBK264502] | 107

Row | SMILES | viability at 28.5 h, 10 µM [%]
64 | COc1cc(-c2nc(-c3ccc(Cl)cc3)c(-c3ccccc3)[nH]2)c([N+](=O)[O-])cc1OC [CBK264503] | 98.9
65 | O=C(OCc1ccccc1)Sc1nnc(-c2ccc([N+](=O)[O-])cc2)o1 [CBK264504] | 91.3
66 | CCN(CC)S(=O)(=O)c1csc(C(=O)Nc2cccc([N+](=O)[O-])c2)c1 [CBK264505] | 91.3
67 | O=C(C1=C(O)C(=O)N(CCN2CCOCC2)C1c1ccco1)c1cccs1 (centres unmarked) [CBK264506] | 96
68 | O=C(O)CC1SC(N/N=C/c2ccc(-c3ccc(Cl)cc3[N+](=O)[O-])o2)=NC1=O (centres unmarked) [CBK264507] | 108
69 | CCC(NS(=O)(=O)c1ccc(OC)cc1)C(=O)O (centres unmarked) [CBK264509] | 100
70 | Cc1c(C)n(O)[n+]([O-])c1-c1ccccc1 [CBK264510N] | 103
71 | CN(C)CCCN1C(=O)C(O)=C(C(=O)c2cccs2)C1c1cccnc1 (centres unmarked) [CBK264511] | 88.2
72 | Cc1nc2c(C)cccc2c(O)c1CN1CCCCCC1 [CBK264512] | 98.1
73 | O=C(C1=C(O)C(=O)N(Cc2cccnc2)C1c1ccncc1)c1ccc(Cl)cc1 (centres unmarked) [CBK264513] | 94.8
74 | O=C(O)CC1S/C(=N/N=C/c2ccc(-c3cccc([N+](=O)[O-])c3)o2)NC1=O (centres unmarked) [CBK264517] | 113
75 | Cc1n[nH]c(O)c1C(c1ccc(OC(=O)c2ccccc2Cl)cc1)c1c(C)n[nH]c1O [CBK264520] | 101
76 | CCOC(=O)CCc1nc2ccccc2nc1O [CBK264526] | 106
77 | CCc1cc2c(=O)c(-c3cnn(-c4ccccc4)c3)c(C(F)(F)F)oc2c(CN(C)C)c1O [CBK264530] | 90.9
78 | O=C(C1=C(O)C(=O)N(CCCN2CCOCC2)C1c1cccs1)c1cccs1 (centres unmarked) [CBK264533] | 111
79 | Cc1ccc(S(=O)(=O)c2cccc(S(N)(=O)=O)c2)cc1S(N)(=O)=O [CBK264535] | 91.7
80 | CC1CCN(S(=O)(=O)c2ccc(NC(=O)c3ccc(Br)o3)cc2)CC1 [CBK264536] | 101
81 | CN(C)S(=O)(=O)c1ccc(C(=O)C2=C(O)C(=O)N(CCN3CCOCC3)C2c2ccccc2)cc1 (centres unmarked) [CBK264540] | 111

Same assay, conditions: human, hela cells, % viability, bulk resorufin, single well

Row | SMILES | viability at 28.5 h, 10 µM [%]
82 | CN1C(=O)C(=CNCCCC(=O)O)C(=O)N(C)C1=O [CBK264420] | 90.4
83 | CCOc1cc(/C=C2/C(=O)NC(=S)N(c3ccccc3CC)C2=O)ccc1OC(C)C(=O)O (centres unmarked) [CBK264460] | 97.8
